Entries after “also recorded” stand apart in the source; their conditions may differ.
Legend:
[1] = test system: convulsions caused by pentylene tetrazole; experiment: Protection against convulsions caused by pentylene tetrazole (PTZ) in adult female Wistar rats after oral administration; assay type: in vivo, rat (Wistar; parameters: key to Chi2 difference between the doses (100 and 200 mgr/kg) / Chi2 difference between the times: NS: not significant; conditions: for Anticonvulsive activity compared with DPH: in comparison with diphenylhydantoin; for Chi2 difference between the doses (100 and 200 mgr/kg): 100 vs 200 mgr/kg; for Chi2 difference between the times: 1 hour vs 2 hours + 4 hours; for Chi2 difference between the times / Chi2 difference between DPH and deuterated DPH: * P < 0.05, ** P < 0.01; for Protection of rats against the convulsive effect of PTZ (number of protected animals / total number of animals): PTZ 100 mgr/kg intraperitoneally
Protocol: The active substances according to the invention were tested in order to examine their activity and their effects in comparison with known diphenylhydantoin (DPH). In these tests as follows, 5-(paradeuterophenyl)-5-phenylhydantoin will be designated by DPH-d1 and 5-phenyl-d5 -5-phenylhydantoin by DPH-d5.
To examine the anticonvulsive activity of these substances, they were subjected to testing as to protection against convulsions caused by pentylene tetrazole on adult female rat (Wistar strain: 200-220 gr). One, two or four hours after oral administration of hydantoins (100 and 200 mgr/kg: solution in dimethyl sulfoxide/propylene glycol), animals have received a dose of 100 mgr/kg of pentylene tetrazole (PTZ) intraperitonally, then they were maintained under observation for 1 hour. The absence of appearance of convulsions was considered as a positive response. The results are expressed in the following table I as the ratio between the number of protected animals and the total number of animals.
The research of significant differences has been made on the following aspects: between DPH and deuterated DPH at 1 hour at doses of 100 and 200 mgr/kg, between DPH and deuterated DPH at any time and at a dose of 100 mgr/kg, between doses of 100 and 200 mgr/kg and between the times.

[2] = Accumulation in the cerebral tissue (general statement); assay type: in vivo; conditions: in comparison with diphenylhydantoin
Text: (§1) The contents of the various tissues in DPH, DPH-d1 and DPH-d5 have been determined at two times after oral administration (male mice, female rats, titration by gaseous chromatography).
(§2) The whole results are mentioned in the following table III. The indicated values represent the ratio of active substance concentrations in the brain and blood. After oral administration, these values as well in rat as in mouse show a trend, which is marked to very marked, to be higher for deuterated DPH than for DPH itself.

[3] = Repartition in tissues (brain/blood ratio) after oral administration, rats, titration by gaseous chromatography; assay type: in vivo; conditions: female rat ± 200 gr, oral 100 mg/kg; for Kp at 1 h: after 1 hour; for Kp at 2 h: after 2 hours
Text: as §1, §2

[4] = Repartition in tissues (brain/blood ratio) after oral administration, mice, titration by gaseous chromatography; assay type: in vivo; conditions: mouse, 100 mg/kg, male mice 20-25gr, oral 100 mgr/kg; for Kp at 2 h: after 2 hours; for Kp at 24 h: after 24 hours
Text: as §1, §2

SMILES | Anticonvulsive activity compared with DPH [1] | Accumulation in the cerebral tissue [2] | Chi2 difference between the doses (100 and 200 mgr/kg) [1] | Chi2 difference between the times [1] | Protection of rats against the convulsive effect of PTZ (number of protected animals / total number of animals) ([1]; oral 100 mgr/kg, 1 hour) | Protection of rats against the convulsive effect of PTZ (number of protected animals / total number of animals) ([1]; oral 100 mgr/kg, 2 hours) | Protection of rats against the convulsive effect of PTZ (number of protected animals / total number of animals) ([1]; oral 100 mgr/kg, 4 hours) | Protection of rats against the convulsive effect of PTZ (number of protected animals / total number of animals) ([1]; oral 200 mgr/kg, 1 hour) | Kp at 1 h [3] | Kp at 2 h [3] | Kp at 2 h [4] | Kp at 24 h [4] | Chi2 difference between DPH and deuterated DPH ([1]; at 1 hour, 100 mgr/kg) | Chi2 difference between DPH and deuterated DPH ([1]; at 1 hour, 200 mgr/kg) | Chi2 difference between DPH and deuterated DPH ([1]; at any time, 100 mgr/kg) | Anticonvulsive activity compared with DPH ([1]; listed as (R,S)-5-phenyl-d5 -5-phenylhydantoin)
[2H]c1c([2H])c([2H])c(C2(c3c([2H])c([2H])c([2H])c([2H])c3[2H])NC(=O)NC2=O)c([2H])c1[2H] [5,5-di-(phenyl-d5)-hydantoin] | higher anticonvulsive activity than diphenylhydantoin | accumulation in the cerebral tissue more favorably | – | – | – | – | – | – | – | – | – | – | – | – | – | –
O=C1NC(=O)C(c2ccccc2)(c2ccccc2)N1 [DPH, 5,5-diphenylhydantoin, reference compound] | – | – | NS | NS | 4/25 | 2/10 | 0/10 | 5/35 | 0.9 ± 0.13 | 5.91 ± 0.93 | 1.45 ± 0.1 | 2.09 ± 0.22 | – | – | – | –
[2H]c1ccc(C2(c3ccccc3)NC(=O)NC2=O)cc1 (stereo not shown) [DPH-d1, 5-(paradeuterophenyl)-5-phenylhydantoin] | better protects the animals against the convulsive effect of PTZ than DPH; also recorded: higher anticonvulsive activity | – | NS | 3.93 | 9/14 | 4/10 | 2/10 | 11/30 | 2.1 ± 0.41 | 15.5 ± 3.7 | – | – | 9.42 | 4.36 | 9.40 | –
[2H]c1c([2H])c([2H])c(C2(c3ccccc3)NC(=O)NC2=O)c([2H])c1[2H] (stereo not shown) [DPH-d5, 5-phenyl-d5-5-phenylhydantoin] | A difference in the same direction, close to the significance limit; also recorded: higher anticonvulsive activity | accumulation in the cerebral tissue more favorably | NS | 3.58 | 7/20 | 2/10 | 0/10 | 11/35 | 2.15 ± 0.37 | 4.49 ± 1.33 | 2.35 ± 0.26 | 2.97 ± 0.3 | 2.17 | 2.92 | 1.22 | higher anticonvulsive activity than diphenylhydantoin

— patent US4304782A, “Psychotropic deuterated derivatives of phenylhydantoin and pharmaceutical compositions comprising such derivatives” (Region Wallonne, priority 1979, dated 1981)
